Earlier results on six compounds are cited in patent US20060275215A1, “Novel imaging agents” (priority 2003, published 2006).

One series concerns the target T1, caspase-3 (Homo sapiens, UniProt P42574).
T1 sequence (P42574 29-175 limits assumed): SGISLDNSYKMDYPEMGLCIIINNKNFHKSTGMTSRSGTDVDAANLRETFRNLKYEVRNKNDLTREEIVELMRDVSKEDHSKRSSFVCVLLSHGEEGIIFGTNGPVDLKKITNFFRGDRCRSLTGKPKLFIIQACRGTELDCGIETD
T1 sequence (P42574 176-277 limits assumed): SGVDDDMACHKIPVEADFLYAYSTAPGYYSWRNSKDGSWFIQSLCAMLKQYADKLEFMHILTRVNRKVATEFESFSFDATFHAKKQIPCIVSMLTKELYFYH

In series [1] the test system is phosphatidylserine (PS) on the outer membrane of apoptotic cells. Conditions: binding to phosphatidylserine on outer membrane of apoptotic cells; read-out: affinity.
For series [2] the following is noted: labelled with the radioisotope 131I.

`CCOc1ccc(OCC(=O)O)cc1CC(=O)NC(C(=O)NC(CC(=O)O)C(=O)CSCc1c(F)cccc1Cl)C(C)C` (stereo not drawn) [6A′]: the “IC50 for caspase-3” value on caspase-3 is given as “low nanomolar range”.

In the case of `CCOc1ccc(OCC(=O)OC)cc1CC(=O)NC(C(=O)NC(CC(=O)O)C(=O)CSCc1c(F)cccc1Cl)C(C)C` (stereo not drawn) [Compound 6A], the “IC50 for caspase-3” value on caspase-3 was “low nanomolar range”.

Turning to `CCOc1ccc(OCC(=O)OC(C)C)cc1CC(=O)NC(C(=O)NC(CC(=O)O)C(=O)CSCc1c(F)cccc1Cl)C(C)C` (stereo not drawn) [Compound 6B], the “IC50 for caspase-3” value on caspase-3 is “low nanomolar range”.

Turning to `CCOc1ccc(S(C)(=O)=O)cc1CC(=O)NC(C(=O)NC(CC(=O)O)C(=O)CSCc1c(F)cccc1Cl)C(C)C` (stereo not drawn) [Compound 6C], the “IC50 for caspase-3” value at caspase-3 is recorded as “low nanomolar range”.

For the compound “Annexin-5: endogenous human protein (RMM 36 kDa) which binds to phosphatidylserine”, the Kd in series [1] is around 1 nM.

For “benzyloxycarbonyl-Val-Ala-DL-Asp(O-methyl)-fluoromethylketone [Z-VAD-fmk]”, in series [2], the absolute cellular uptake result is “low”.
